Measurements reported in patent US7820374B2, “Detection methods based on HR23 protein binding molecules” (Erasmus Universiteit Rotterdam, priority 2001, dated 2010).
Where a SMILES comes first, the peptide text is derived from it. The star is where a group is joined. Cbz = O=C(OCc1ccccc1)*

How the values were obtained:
[1] = test system: DKO cells expressing hXPC-GFP/hHR23B; assay: XPC-GFP accumulation in living DKO cells expressing hXPC-GFP/hHR23B after exposure to agents (fluorescence microscopy); format: cell-based, mouse
Experimental: Cells stably expressing hXPC-GFP/hHR23B were rinsed with PBS, exposed to UV-C light (254 nm; Philips TUV lamp, dose as indicated in the text) and subsequently cultured at 37° C. for various time periods (as indicated in the text). XPC was detected either by immunoblot analysis or by visualization in living cells using fluorescence microscopy. A similar approach was used to study the effect of N-acetoxy-2-acetylaminofluorene (NA-AAF, final concentration 50 or 100 μM), mitomycin C (MMC, Sigma, final concentration 1.2 or 2.4 μg/ml), ionizing radiation (γ-rays from a ^137Cs source, single dose of 6 and 10 Gy), the proteasome inhibitor N-CBZ-LEU-LEU-LEU-AL (CBZ-LLL, Sigma, final concentration 5 or 10 μM), the transcription inhibitor 5,6-dichloro-1β-D-ribofuranosyl-benzimidazole (DRB, Sigma, final concentration of 100 μM, 2-3 hrs), the translation inhibitor cyclohexamide (CHX, Boehringer, final concentration 30, 50, and 100 μg/ml, 1-3 hours), heat shock (39.5 and 41° C., for 2-12 hrs), and the nuclear export inhibitor leptomycin B (LMB, Sigma, final concentration 10 ng/ml).
Immunofluorescent microscopy images were obtained with either a Leitz Aristoplan microscope equipped with epifluorescene optics and a PlanApo 63×/1.40 oil immersion lens or a Leica DMRBE microscope equipped with epifluorescene optics and a PL Fluotar 100×/1.30 oil immersion lens. For the detection of GFP-tagged proteins in the living cell, an Olympus IX70 microscope equipped with epifluorescence optics and Olympus PlanApo 60×/1.40 oil immersion lens was used. GFP images were obtained after excitation with 455-490 and long pass emission filter (>510 nm). Cy-3 images were obtained after excitation with 515-560 and long pass emission filter (580 nm).

[2] = test system: CRM1/Exportin1-mediated nuclear export of XPC-GFP; assay: Heterokaryon nuclear-cytoplasmic shuttling assay (DKO cells expressing XPC-GFP/hHR23B fused to HeLa cells); format: cell-based, mouse/human heterokaryon; settings: LMB 10 ng/ml directly after cell fusion; XPC-GFP induced by 10 J/m^2 UV-C 6 hr prior to fusion; 4 hr after fusion
Experimental: The shuttling assay using heterokaryons was performed as described (Borer et al., 1989). One day before cell fusion, DKO cells stably expressing hXCPC-GFP/hHR23B and HeLa cells were seeded in a 1:1 ratio on coverslips. Six hours prior to fusion, cells were irradiated with 10 J/m^2 UV-C or treated with 10 μM CBZ-LLL. Cell-fusion was induced (after washing with PBS) by treatment with 50% polyethylene glycol 6,000 in HANKS™ (Gibco) for 2 min followed by (3×) washing with PBS. Finally, cells were cultured in fresh medium either supplemented with or without leptomycin B (LMB, final concentration 10 ng/ml). Three to five hours after fusion, cells were fixed with 2% paraformaldehyde and immunostained with rat monoclonal anti-HA (to monitor the XPC-GFP-His6HA protein) and rabbit polyclonal anti-human ERCC1 (to distinguish human nuclei from mouse nuclei, since it specifically recognizes human ERCC1) and subsequently with appropriate secondary antibodies (see above).

SMILES: CC(C)C[C@@H](C=O)NC(=O)[C@H](CC(C)C)NC(=O)[C@H](CC(C)C)NC(=O)OCc1ccccc1 [CBZ-LLL, N-CBZ-LEU-LEU-LEU-AL] (Cbz-Leu-Leu-Leu-aldehyde)
- reversibility of XPC-GFP accumulation ([1]; CBZ-LLL 5 and 10 μM, after drug removal (not shown)): reversible upon drug removal
- XPC-GFP accumulation ([1]; CBZ-LLL 5 and 10 μM, confirmed by immunoblot and anti-HA immunocytochemistry): all cells displayed a striking XPC-GFP accumulation in time

SMILES: OC[C@H]1O[C@@H](n2cnc3cc(Cl)c(Cl)cc32)[C@H](O)[C@@H]1O [DRB, 5,6-dichloro-1β-D-ribofuranosyl-benzimidazole]
- induction of XPC-GFP fluorescence ([1]; DRB 100 μM alone, no DNA damage): No induction of XPC-GFP fluorescence was observed
- UV-induced XPC-GFP accumulation ([1]; preincubation with DRB (2-3 hrs) prior to UV treatment, data not shown): prevented UV-induced XPC-GFP accumulation

SMILES: CCC(=C/[C@H](C)C/C=C/C(C)=C/[C@@H](C)C(=O)[C@@H](C)[C@H](O)[C@@H](C)C/C(C)=C/C(=O)O)/C=C/[C@@H]1OC(=O)C=C[C@@H]1C [LMB, leptomycin B]
- exchange of nuclear XPC-GFP from mouse (DKO) nuclei to human (HeLa) nuclei [2]: prevented this exchange

SMILES: CO[C@@]12[C@H](COC(N)=O)C3=C(C(=O)C(C)=C(N)C3=O)N1C[C@@H]1N[C@@H]12 [MMC, mitomycin C]
- XPC accumulation (hXPC-GFP fluorescence) ([1]; MMC 1.2 and 2.4 μg/ml): failed to provoke detectable XPC accumulation

SMILES: CC(=O)ON(C(C)=O)c1ccc2c(c1)Cc1ccccc1-2 [NA-AAF, N-acetoxy-2-acetylaminofluorene]
- XPC accumulation (hXPC-GFP fluorescence) ([1]; NA-AAF 50 and 100 μM, within 6 to 8 hrs): very potent UV-like response in all cells

SMILES: C[C@@H]1C[C@@H]([C@H](O)CC2CC(=O)NC(=O)C2)C(=O)[C@@H](C)C1 [cyclohexamide]
- XPC fluorescence ([1]; cyclohexamide 30 and 50 μg/ml): no enhanced XPC fluorescence was found
